Where no end group is shown, it is not given here.
Assays:
[1] = system: laminin; test: Extracellular matrix molecules by fluorescence microscopy; assay type: cell-based, human; conditions: FN1 cells, 50 ng/ml, 48 h, 10% FBS
Text: (§1) Previous studies have reported the importance of extracellular matrix components for maintaining cell survival of serum-deprived cells and that survival is enhanced by cell-cell contact. To confirm the synthesis of extracellular matrix molecules, fibroblast cultures were marked with antibodies specific for laminin and fibronectin following treatment with the synthetic peptide.
(§2) After treatment, the medium was removed and cells were washed with PBS and fixed with 3.7% paraformaldehyde for 10 minutes. Triton X-100 (0.1%) was added for 15 minutes for permeabilization of the plasma membrane, followed by addition of the primary antibody and incubation for 12 hours (overnight) in the dark at 4° C. The cells were washed with PBS, the secondary antibody was added and the cells were kept for 1 hour at room temperature in the dark. Antibodies were diluted according to the manufacturer's recommendation. After washing, the […] cell nuclei were stained with 4′,6-diamidino-2-phenylindole (DAPI) reagent (Invitrogen) and slides were mounted on coverslips containing 4 μl of antifade solution (Vectashield™, Vector-H1000, that serves to preserve fluorescence). Cells were viewed with an Axio™ Imager A1 fluorescence microscope (Carl Zeiss, Germany).
(§3) Primary antibodies in blocking buffer: 10% FBS, 1% BSA in TBS (0.1% Triton X-100 in PBS):
Rabbit polyclonal to Laminin alpha 4 (abcam): 1/500

[2] = system: Human umbilical vein endothelial cells (HUVEC); test: MTT cytotoxicity and cell viability assay; assay type: cell-based; conditions: 72 h; for cell viability (MTT), significance relative to untreated control (1% FBS): p<0.01
Protocol: For in vitro cell culture tests, the peptide (previously dissolved in water and stored at −20° C.) was resuspended, at the desired concentration, in culture medium supplemented with fetal bovine serum (FBS). The concentration of FBS was selected depending on the requirements of each experiment.
The MTT method was used (Mosmann, T., Rapid colorimetric assay for cellular growth and survival: application to proliferation and cytotoxicity assays. J Immunol Methods, 1983. 65(1-2): p. 55-63). The viability test was performed in culture plates of 96 wells. […] After 72 h, the supernatant was discarded and the cells washed twice with phosphate buffered saline (PBS) at pH 7.4 and incubated at 37° C. for 3 h with 100 μl of 0.5 mg/ml MTT reagent (3-(4,5-dimethylthiazol-2-yl)-2,5-diphenyl tetrazolium bromide) in PBS. The supernatant was removed and the reaction was stopped with 100 μl of dimethyl sulfoxide (DMSO). Absorbance values were determined at 540 nm using a SpectraMax™ 190 automatic plate reader (Molecular Devices, USA).
The results were expressed as a percentage of cell viability relative to the untreated control at time zero (initial number of cells). Absorbance values were determined at 540 nm. The results were expressed as the average ±standard error of the mean (SEM) of 5 independent experiments. Statistical significance between the groups were determined by a one-way ANOVA test (*: p<0.05, **: p<0.01).

[3] = system: FN1 cells; test: Detection of intracellular reactive oxygen and nitrogen species (ROS); assay type: cell-based, human; conditions: for ROS production: serum-deprived (1% FBS)
Protocol: The detection of reactive species was performed by the ROS Detection Kit (Enzo Life Sciences, Plymouth Meeting, Pa.) according to the manufacturer's instructions. This assay allows detecting ROS production in living cells by flow cytometry. The dye detection reagent reacts with hydrogen peroxide, peroxynitrite and hydroxyl radicals. FN1 cells at a density of 10^6/ml were plated and cultured in 6-well plates for 24 hours in incubator containing 5% CO2 at 37° C. […] Then, the cells were washed with wash buffer supplied by the manufacturer and centrifuged at 1500 rpm for 10 minutes. The supernatant was discarded and the cell button resuspended in 200 μl of PBS. The fluorescence was determined at λ=485 nm for excitation and emission λ=590 nm for a FACScalibur™ flow cytometry system using CellQuest™ software with the acquisition of 10,000 events having as parameters FSC (size) and SSC (granularity/complexity) linear scale and FL1/FL2 on logarithmic scales. The results were expressed as the mean±SEM (standard error of the mean) of 3 independent experiments.

[4] = system: FN1 fibroblasts; test: Cell cycle phases by propidium iodide flow cytometry; assay type: cell-based, human; conditions: 48 hours
Protocol: The distribution of cells in the various cell cycle phases was determined by the content or amount of propidium iodide (PI) incorporated into the cell, measured by flow cytometry (Vindelov, L. L., I. J. Christensen, and N. I. Nissen, Standardization of high-resolution flow cytometric DNA analysis by the simultaneous use of chicken and trout red blood cells as internal reference standards. Cytometry, 1983. 3(5): p. 328-31). […] After treatment, the FN1 cell suspensions were resuspended in 70% ethanol and kept in a freezer at −20° C. for subsequent analysis of cell cycle phases. At the time of the experiment, cells were incubated in a PBS solution: 950 μl of PBS, 40 μl of PI (1 mg/ml) and 10 μl of Rnase: (10 mg/ml), to assess the quantity and integrity of DNA in the cell cycle phases. The results obtained by the acquisition program CellQuest™ acquired on a FACScalibur™ flow cytometer (Becton and Dickson, USA) were analyzed by FACS ModFit™ 2.8. The DNA content was expressed as mean percentage±standard error of the mean (SEM) of 3 independent experiments (Student's t test) of cells distributed in the different cell cycle phases: apoptotic cells, G0/G1, S and G2/M.

[5] = system: vitronectin; test: Extracellular matrix molecules by fluorescence microscopy; assay type: cell-based, human; conditions: FN1 cells, 50 ng/ml, 48 h, 10% FBS
Text: as §1, §2, §3
Mouse monoclonal [VN58-1] […]

[6] = system: FN1 fibroblasts; test: Ultrastructure of fibroblasts by transmission electron microscopy (TEM); assay type: cell-based, human; conditions: 1% FBS, 50 ng/ml, 48 hours
Text: Severe morphological changes in normal fibroblasts are observed after serum deprivation conditions consistent with those of apoptotic cell death. […] TEM provides ultra-structural evidence about the nature of cell death (Kulkarni, G. V. and C. A. McCulloch, Serum deprivation induces apoptotic cell death in a subset of Balb/c 3T3 fibroblasts. J Cell Sci, 1994. 107 (Pt 5): p. 1169-79).
Cells were washed 3 times with PBS and gently collected in a tube with the help of a cell scraper. The cell suspension was centrifuged, and the cell button re-suspended in a solution of 3% glutaraldehyde and 2% paraformaldehyde diluted in sodium cacodylate. The cell button was post-fixed in 1% solution of osmium tetroxide for 1 hour, washed with PBS and distilled water and dehydrated in a graded ethanol series (30, 60, 70, 80 and 100%). Finally, the epoxy resin was mixed with warm ethanol (1:1) for infiltration, and only the resin was used for the incorporation of cells (60° C./48 h). Ultrathin sections (50 nm) were cut with an ultramicrotome (Leica Ultracut™ UCT) and stained with 5% uranyl acetate in 50% ethanol and 2% aqueous solution of citrate. The obtained sections were photographed using a TEM (LEO™ 906E, Zeiss, […]) at an accelerating voltage of 80 kV.

[7] = system: fibronectin; test: Extracellular matrix molecules by fluorescence microscopy; assay type: cell-based, human; conditions: FN1 cells, 50 ng/ml, 48 h, 10% FBS
Text: as §1, §2, §3
Rabbit polyclonal to Fibronectin (abcam): 2 μg/ml

[8] = system: collagen I; test: as above; assay type: cell-based, human; conditions: FN1 cells, 50 ng/ml, 48 h, 10% FBS
Text: as §1, §2, §3
Mouse monoclonal to Collagen type I [Col-I] (abcam): 1/1000

[9] = system: human dermal fibroblasts (FN1); test: Cell proliferation by CFDA-SE staining, flow cytometry; assay type: cell-based; conditions: FN1 cells; for proliferation / cytoprotection (CFDA-SE staining): 1% FBS, 48 hours; for proliferation rate (CFDA-SE staining): 10% FBS, 48 h, p<0.001 versus control 10% FBS
Protocol: Quantitative assessment of cell proliferation was performed by staining cells with carboxyfluorescein succinimidyl ester (CFDA-SE), as described previously (Asquith, B., et al., Quantifying lymphocyte kinetics in vivo using carboxyfluorescein diacetate succinimidyl ester (CFSE). Proc Biol Sci, 2006. 273(1590): p. 1165-71; Lyons, A. B., Analysing cell division in vivo and in vitro using flow cytometric measurement of CFSE dye dilution. J Immunol Methods, 2000. 243(1-2): p. 147-54). CFDA-SE is a lipophilic dye which reacts with amino groups of peptides and proteins, forming a stable amide linkage, which can be detected using flow cytometry analysis. The CFDA-SE passively diffuses into cells. It is colorless and nonfluorescent until its acetate groups are cleaved by intracellular esterases to produce a highly fluorescent, amine reactive succinimidyl ester of carboxyfluorescein, which is well conserved and can be fixed with aldehyde fixatives. The excess reagent and unconjugated by products passively diffuse into the extracellular environment where they can be washed away. When parent cells divide, CFDA-SE dye is equally distributed to the daughter cells, which therefore have half of the fluorescence intensity of the parents. The reduction of fluorescence intensity of cell generations in cell proliferation is easily detected by flow cytometry.
For the assay, human dermal fibroblasts (FN1) cells were seeded in six-well plates (1×10^4 cells/well), incubated with […] CFDA—SE diluted in PBS, and cultured at 37° C. with 5% CO2 for 15 minutes protected from light, according to the manufacturer's instructions (Vybrant® CFDA SE Cell Tracer Kit, MolecularProbes). […] Subsequently, the cells were trypsinized and the cell buttons resuspended in 300 μl of FACS buffer with 2% paraformaldehyde and kept in the refrigerator until the moment of reading. Cell proliferation by CFDA—SE was estimated by the reduction in cell fluorescence. Fluorescence was determined for excitation at λ=492 nm and for emission at λ=517 nm (10000 events per sample) in a FACScalibur™ flow cytometry system (Becton and Dickson) using the CellQuest™ software. The parameters FSC (size) and SSC (granularity/complexity) was detected in linear scale and FL1-H on a logarithmic scale. Proliferation was analyzed using the program ModFit LT™ 2.0 (Verity Software House, Topsham, Me., USA). The figures are expressed as the average ±standard error of the mean (SEM) of 5 independent experiments (Student's t test).

[10] = 125 μg/ml, 25° C., sodium phosphate buffer, pH 6.0 to 8.0, 24 hours
Protocol: Measurement of the structural integrity of the peptide was carried out using sodium phosphate buffer at various pH values (6.0, 6.4, 6.8, 7.0, 7.4, 8.0) containing 125 μg/ml of the peptide. Peptide solutions were incubated overnight at room temperature (25° C.). Analyses of circular dichroism (CD) were performed on a J-810 spectropolarimeter controlled by Spectra Manager™ software (JASCO), using cuvettes with optical path length of 0.1 cm (Biotechnology Center—Instituto Butantan). The CD spectra were recorded in the range 183-260 nm every 0.1 nm. The spectrum of each sample was subtracted from the spectrum of the buffer without peptide.

[11] = 25 ng/ml, p<0.05 versus control 1% FBS
[12] = 50 ng/ml, p<0.001 versus control 1% FBS

Sequence: DYFKDGKDVN [LONO-Q]
- production of laminin [1]: increased amounts
- cellular proliferation (MTT), significance ([2]; 10% FBS, 50 ng/ml, p<0.05): statistically significant results
- cell viability (MTT) ([2]; HUVECs, 1% FBS (serum deprivation), dose response): stimulated cell viability in a dose-dependent manner
- cell viability (MTT), significance relative to untreated control (1% FBS) ([2]; HUVECs, 25 ng/ml): statistically significant results
- cell viability (MTT), significance relative to untreated control (1% FBS) ([2]; HUVECs, 50 ng/ml): statistically significant results
- cellular proliferation (MTT) ([2]; normal conditions (10% FBS), dose response): stimulated the cellular proliferation in a dose-dependent manner
- ROS generation ([3]; normal cell growth (10% FBS)): no statistically significant decrease in ROS generation
- ROS production [3, 11]: statistically significant decrease of ROS production
- ROS production [3, 12]: statistically significant decrease of ROS production
- apoptotic cells (fragmented DNA) ([4]; 1% FBS, 50 ng/ml, n=3, mean±SEM, p<0.01 vs. control 1% FBS): 8.1±1.1%
- cells in S phase of the cell cycle ([4]; 1% FBS, 50 ng/ml, n=3, mean±SEM, p<0.05 vs. control 1% FBS): 17.2±1.5%
- S phase of the cell cycle, dose dependence ([4]; 1% FBS, 25 or 50 ng/ml): apparent dose-dependent increase of the S phase
- cells in G2/M ([4]; 10% FBS, 50 ng/ml, n=3, mean±SEM, p<0.05 vs. control 10% FBS): 18.4±2.5%
- production of vitronectin [5]: increased amounts
- morphological changes induced by serum deprivation (TEM) [6]: retards most of the effects observed in serum deprived cells
- production of fibronectin [7]: increased amounts
- production of collagen I [8]: increased amounts
- proliferation / cytoprotection (CFDA-SE staining) [9, 11]: significant cytoprotection
- proliferation / cytoprotection (CFDA-SE staining) [9, 12]: significant cytoprotection
- proliferation rate (CFDA-SE staining) ([9]; 25 ng/ml): statistically significant increase in the proliferation rate
- proliferation rate (CFDA-SE staining) ([9]; 50 ng/ml): statistically significant increase in the proliferation rate
- Stability (circular dichroism) [10]: remains stable

Source: patent US9556225B2, “Peptide stimulator of cell survival and proliferation” (União Química Farmacêutica Nacional S/A, priority 2014, dated 2017)
